Assay results taken from patent US8293732B2, “Antibacterial quinoline derivatives” (Janssen Pharmaceutica N.V., priority 2006, dated 2012).
Values after ≈ are worked out from the molar mass of the structure shown.

Tests used:
M. Smegmatis (ATCC607) = experiment: In-vitro anti-bacterial activity against strain M. Smegmatis ATCC607; assay type: cell-based; settings: 90% inhibitory concentration for bacterial growth, 37° C., Alamar Blue fluorescence; for IC90: Mycolicibacterium smegmatis, ATCC607, 48 h, read-out: IC90 values MSM 1 ATCC607; for IC90 values MSM 1 ATCC607: 48 hours
Protocol: Flat-bottom, sterile 96-well plastic microtiter plates were filled with 180 μl of sterile deionized water, supplemented with 0.25% BSA. Subsequently, stock solutions (7.8× final test concentration) of compounds were added in 45 μl volumes to a series of duplicate wells in column 2 so as to allow evaluation of their effects on bacterial growth. Serial five-fold dilutions (45 μl in 180 μl) were made directly in the microtiter plates from column 2 to 11 using a customised robot system (Zymark Corp., Hopkinton, Mass.). Pipette tips were changed after every 3 dilutions to minimize pipetting errors with high hydrophobic compounds. Untreated control samples with (column 1) and without (column 12) inoculum were included in each microtiter plate. Approximately 250 CFU per well of bacteria inoculum, in a volume of 100 μl in 2.8× Mueller-Hinton broth medium, was added to the rows A to H, except column 12. The same volume of broth medium without inoculum was added to column 12 in row A to H. The cultures were incubated at 37° C. for 48 hours in a humidified 5% CO2 atmosphere (incubator with open air valve and continuous ventilation). At the end of incubation, two days after inoculation, the bacterial growth was quantitated fluorometrically. Therefore Alamar Blue (10×) was added to all wells in a volume of 20 μl and plates were incubated for another 2 hours at […]
The fluorescence was read in a computer-controlled fluorometer (Cytofluor, Biosearch) at an excitation wavelength of 530 nm and an emission wavelength of 590 nm (gain 30).
(§1) STA 29213 means Staphylococcus aureus (ATCC29213); SPN 6305 means Streptococcus pneumoniae (ATCC6305); MSM 607 means M. Smegmatis (ATCC607); ATCC means […].

[1] = system: Streptococcus pneumoniae (ATCC6305); experiment: In-vitro anti-bacterial microtitre plate assay, IC90 determination (SPN 1 6305); assay type: cell-based; settings: 90% inhibitory concentration for bacterial growth, 37° C., resazurin fluorescence; for IC90 values SPN 1 6305: 24 hours; for IC90: Streptococcus pneumoniae, ATCC6305, 24 h
Protocol: (§2) The bacteria used in this study were grown overnight in flasks containing 100 ml Mueller-Hinton Broth (Becton Dickinson—cat. no. 275730) in sterile de-ionized water, with shaking, at 37° C. Stocks (0.5 ml/tube) were stored at −70° C. until use. Bacteria titrations were performed in microtiter plates to detect the TCID50, in which the TCID50 represents the dilution that gives rise to bacterial growth in 50% of inoculated cultures.
(§3) In general, an inoculum level of approximately 100 TCID50 was used for susceptibility testing.
(§4) Flat-bottom, sterile 96-well plastic microtiter plates were filled with 180 μl of sterile deionized water, supplemented with 0.25% BSA. Subsequently, stock solutions (7.8× final test concentration) of compounds were added in 45 μl volumes in column 2. Serial five-fold dilutions (45 μl in 180 μl) were made directly in the microtiter plates from column 2 to reach column 11. Untreated control samples with (column 1) and without (column 12) inoculum were included in each microtiter plate. Depending on the bacteria type, approximately 10 to 60 CFU per well of bacteria inoculum (100 TCID50), in a volume of 100 μl in 2.8× Mueller-Hinton broth medium, was added to the rows A to H, except column 12. The same volume of broth medium without inoculum was added to column 12 in row A to H. The cultures were incubated at 37° C. for 24 hours under a normal atmosphere (incubator with open air valve and continuous ventilation). At the end of incubation, one day after inoculation, the bacterial growth was quantitated fluorometrically. Therefore resazurin (0.6 mg/ml) was added in a volume of 20 μl to all wells 3 hours after inoculation, and the plates were re-incubated overnight. A change in colour from blue to pink indicated the growth of bacteria. The fluorescence was read in a computer-controlled fluorometer (Cytofluor Biosearch) at an excitation wavelength of 530 nm and an emission wavelength of 590 nm. The % growth inhibition achieved by the compounds was calculated according to standard methods.
as §1

[2] = system: Staphylococcus aureus (ATCC29213); experiment: In-vitro anti-bacterial microtitre plate assay, IC90 determination (STA 1 B29213); assay type: cell-based; settings: 90% inhibitory concentration for bacterial growth, 37° C., resazurin fluorescence; for IC90: Staphylococcus aureus, ATCC29213, 24 h; for IC90 values STA 1 B29213: 24 hours
Protocol: as §2, §3, §4, §1

SMILES | melting point [°C] | IC90 values SPN 1 6305 [1] [µg/mL] | IC90 [2] [µg/mL] | IC90 values STA 1 B29213 [2] [µg/mL] | IC90 [1] [µg/mL] | IC90 (M. Smegmatis (ATCC607)) [µg/mL] | IC90 values MSM 1 ATCC607 (M. Smegmatis (ATCC607)) [µg/mL]
COc1nc2ccc(Br)cc2cc1C(c1ccccc1)C(O)(CCCCN(C)C)COc1ccccc1 (single isomer, unassigned) [Compound 1] | 148 | 8.9 (≈ 15.8 µM) | 8.9 (≈ 15.8 µM) | – | – | 2.2 (≈ 3.9 µM) | –
COc1nc2ccc(Br)cc2cc1C(c1ccccc1)C(O)(CCCCN(C)C)COc1ccccc1 (single isomer, unassigned) [Compound 2] | 151 | 2.2 (≈ 3.9 µM) | – | 4.5 (≈ 7.99 µM) | – | – | 1.8 (≈ 3.19 µM)
COc1nc2ccc(Br)cc2cc1C(c1ccc(Cl)cc1)C(O)(CCCCN(C)C)COc1ccccc1 (single isomer, unassigned) [Compound 4] | 118 | 2.4 (≈ 4.01 µM) | – | 1.9 (≈ 3.18 µM) | – | – | 1.9 (≈ 3.18 µM)
COc1nc2ccc(Br)cc2cc1C(c1ccccc1)C(O)(CCCCN(C)C)COc1ccc(C)cc1 (single isomer, unassigned) [Compound 5] | 146 | – | – | 4.1 (≈ 7.1 µM) | 4.1 (≈ 7.1 µM) | 1.8 (≈ 3.12 µM) | –
COc1nc2ccc(Br)cc2cc1C(c1ccccc1)C(O)(CCCCN(C)C)COc1ccc(C)cc1 (single isomer, unassigned) [Compound 6] | 130 | 5.2 (≈ 9 µM) | – | 9.2 (≈ 15.9 µM) | – | – | 1.8 (≈ 3.12 µM)
COc1nc2ccccc2cc1C(c1ccc(-c2cnn(C)c2)cc1)C(O)(CCCCN(C)C)c1ccc2ccccc2c1 (single isomer, unassigned) [Compound 10] | 190 | – | 1.9 (≈ 3.25 µM) | – | 1.9 (≈ 3.25 µM) | – | 0.4 (≈ 0.684 µM)
COc1nc2ccccc2cc1C(c1ccc(-c2ccoc2)cc1)C(O)(CCCCN(C)C)c1ccc2ccccc2c1 (single isomer, unassigned) [Compound 13] | 197 | 2.0 (≈ 3.5 µM) | – | 1.8 (≈ 3.15 µM) | – | – | 1.3 (≈ 2.28 µM)
COc1nc2ccccc2cc1C(c1cccc(-c2cnc3ccccc3c2)c1)C(O)(CCCCN(C)C)c1ccc2ccccc2c1 (single isomer, unassigned) [Compound 16] | 141 | – | 2 (≈ 3.17 µM) | – | 2 (≈ 3.17 µM) | 2 (≈ 3.17 µM) | –
COc1nc2ccc(Br)cc2cc1C(c1ccccc1)C(O)(CCCCN1CCN(C)CC1)COc1ccccc1 (single isomer, unassigned) [Compound 20] | 144 | 9.8 (≈ 15.8 µM) | – | 49.1 (≈ 79.4 µM) | – | – | 9.8 (≈ 15.8 µM)
COc1nc2ccc(Br)cc2cc1C(c1ccc(Cl)cc1)C(O)(CCCCN1CCN(C)CC1)COc1ccccc1 (single isomer, unassigned) [Compound 22] | 158 | 11.6 (≈ 17.8 µM) | – | 32.7 (≈ 50.1 µM) | – | – | 8.2 (≈ 12.6 µM)
COc1nc2ccc(Br)cc2cc1C(c1ccccc1)C(O)(CCCCN1CCN(C)CC1)COc1ccc(C)cc1 (single isomer, unassigned) [Compound 24] | 168 | 10.0 (≈ 15.8 µM) | – | 39.9 (≈ 63.1 µM) | – | – | 10.0 (≈ 15.8 µM)
COc1nc2ccc(Br)cc2cc1C(c1ccccc1)C(O)(CCCCN1CCN(C)CC1)COCc1ccccc1 (single isomer, unassigned) [Compound 28] | 122 | 12.6 (≈ 19.9 µM) | – | 10.0 (≈ 15.8 µM) | – | – | 4.5 (≈ 7.11 µM)
COc1nc2ccc(Br)cc2cc1C(c1ccc2c(c1)OCO2)C(O)(CCN(C)C)c1ccccc1 (single isomer, unassigned) [Compound 29] | – | 0.4 (≈ 0.728 µM) | – | 3.1 (≈ 5.64 µM) | – | – | 1.7 (≈ 3.09 µM)
COc1nc2ccc(Br)cc2cc1C(c1ccc2c(c1)OCO2)C(O)(CCN(C)C)c1ccccc1 (single isomer, unassigned) [Compound 30] | 159 | 1.7 (≈ 3.09 µM) | – | 55.0 (≈ 100 µM) | – | – | 0.4 (≈ 0.728 µM)
COc1nc2ccc(Br)cc2cc1C(c1ccccc1)C(O)(CCCCN(C)C)c1cccc(/C=C/c2ccccc2)c1 (single isomer, unassigned) [Compound 41] | – | 2.01 (≈ 3.16 µM) | 2.01 (≈ 3.16 µM) | – | – | – | 0.40 (≈ 0.629 µM)
COc1nc2ccccc2cc1C(c1ccc(-c2ccncc2)cc1)C(O)(CCCCN(C)C)c1ccc2ccccc2c1 (single isomer, unassigned) [Compound 48] | 210 | – | – | 1.84 (≈ 3.16 µM) | – | – | 1.04 (≈ 1.79 µM)
COc1nc2ccc(Br)cc2cc1C(c1ccoc1)C(O)(CCc1ccc(F)cc1)CCN(C)C (single isomer, unassigned) [Compound 53] | 122 | – | 8.58 (≈ 15.8 µM) | – | – | 1.71 (≈ 3.16 µM) | –

Second part, led by results:

melting point [°C] | IC90 values SPN 1 6305 [1] [µg/mL] | IC90 [2] [µg/mL] | IC90 values STA 1 B29213 [2] [µg/mL] | IC90 [1] [µg/mL] | SMILES | IC90 (M. Smegmatis (ATCC607)) [µg/mL] | IC90 values MSM 1 ATCC607 (M. Smegmatis (ATCC607)) [µg/mL]
– | 0.86 (≈ 1.41 µM) | 1.93 (≈ 3.17 µM) | – | – | COc1nc2ccc(Br)cc2cc1C(c1ccccc1)C(O)(CCCCN(C)C)c1cccc(-c2ccccc2)c1 (single isomer, unassigned) [Compound 31] | 1.93 (≈ 3.17 µM) | –
– | 1.93 (≈ 3.17 µM) | – | 1.93 (≈ 3.17 µM) | – | COc1nc2ccc(Br)cc2cc1C(c1ccccc1)C(O)(CCCCN(C)C)c1cccc(-c2ccccc2)c1 (single isomer, unassigned) [Compound 32] | – | 0.97 (≈ 1.59 µM)
– | 1.82 (≈ 2.83 µM) | – | 2.04 (≈ 3.17 µM) | – | COc1nc2ccc(Br)cc2cc1C(c1ccccc1)C(O)(CCCCN(C)C)c1cccc(-c2ccc(Cl)cc2)c1 (single isomer, unassigned) [Compound 33] | 2.04 (≈ 3.17 µM) | –
– | 0.72 (≈ 1.12 µM) | – | 0.91 (≈ 1.41 µM) | – | COc1nc2ccc(Br)cc2cc1C(c1ccccc1)C(O)(CCCCN(C)C)c1cccc(-c2ccc(Cl)cc2)c1 (single isomer, unassigned) [Compound 34] | – | 1.29 (≈ 2 µM)
– | – | 2.02 (≈ 3.16 µM) | – | 2.02 (≈ 3.16 µM) | COc1ccc(-c2cccc(C(O)(CCCCN(C)C)C(c3ccccc3)c3cc4cc(Br)ccc4nc3OC)c2)cc1 (single isomer, unassigned) [Compound 38] | – | 10.14 (≈ 15.9 µM)
– | 2.02 (≈ 3.16 µM) | – | 2.02 (≈ 3.16 µM) | – | COc1ccc(-c2cccc(C(O)(CCCCN(C)C)C(c3ccccc3)c3cc4cc(Br)ccc4nc3OC)c2)cc1 (single isomer, unassigned) [Compound 39] | – | 2.02 (≈ 3.16 µM)
– | – | 1.97 (≈ 3.16 µM) | – | 1.97 (≈ 3.16 µM) | COc1nc2ccc(Br)cc2cc1C(c1ccccc1)C(O)(CCCCN(C)C)c1cccc(-c2ccc(C)cc2)c1 (single isomer, unassigned) [Compound 40] | – | 7.85 (≈ 12.6 µM)
– | 0.898 (≈ 1.41 µM) | – | 2.01 (≈ 3.16 µM) | – | COc1nc2ccc(Br)cc2cc1C(c1ccccc1)C(O)(CCCCN(C)C)c1cccc(/C=C/c2ccccc2)c1 (single isomer, unassigned) [Compound 55] | – | 1.792 (≈ 2.82 µM)
